This note sets out measurements from patent US20030095958A1, “Inhibitors of bace” (priority 2001, published 2003).

pKi: −log10 of the molar value.

For this assay, the target named is BACE (Homo sapiens, UniProt P56817). Put plainly: Ki Determination for the Inhibition of BACE (FS-1 peptide fluorescence cleavage assay). In kind it is biochemical. The following applies: apparent Ki; 50 nM BACE, 10 μM FS-1 substrate, 0.1M sodium acetate pH 4.5. The method, boiled down: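 Apparent Ki values derive from fitting fluorescence progress data (355 nm excitation, 495 nm emission) of FS-1 peptide cleavage to an integrated competitive tight-binding model. Reactions held 50 nM BACE, 10 μM substrate and inhibitor in 2% DMSO, pH 4.5 acetate buffer, with a 15 min enzyme-compound preincubation at room temperature.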
Sequence of BACE (P56817 46-501): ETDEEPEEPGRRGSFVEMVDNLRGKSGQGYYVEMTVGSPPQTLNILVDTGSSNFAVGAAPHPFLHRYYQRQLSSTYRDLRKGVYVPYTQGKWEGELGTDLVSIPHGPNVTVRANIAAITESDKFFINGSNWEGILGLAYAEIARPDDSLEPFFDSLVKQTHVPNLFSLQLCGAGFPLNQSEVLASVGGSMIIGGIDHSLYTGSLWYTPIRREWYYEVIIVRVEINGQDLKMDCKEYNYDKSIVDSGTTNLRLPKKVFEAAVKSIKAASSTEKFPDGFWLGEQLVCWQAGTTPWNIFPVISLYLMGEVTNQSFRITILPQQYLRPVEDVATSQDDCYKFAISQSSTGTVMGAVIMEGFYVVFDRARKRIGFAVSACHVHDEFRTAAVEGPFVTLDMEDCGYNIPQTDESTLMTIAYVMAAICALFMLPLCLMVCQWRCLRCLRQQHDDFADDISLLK
With `O=C(Nc1ccc2ccccc2c1)C1CNCCN1C(=O)c1cccc(COc2ccccc2C(F)(F)F)c1` (stereo not drawn) [Compound 206, 1-[3-(2-Trifluoromethyl-phenoxymethyl)-benzoyl]-piperazine-2-carboxylic acid naphthalen-2-ylamide], the negative logarithm of the Ki (pKi) was below 4.52.
For the molecule `O=C(O)C1CCCCC1C(=O)NCC1CNCCC1c1ccc(COc2ccccc2C(F)(F)F)cc1` (stereo not drawn) [Compound 207, 2-({4-[4-(2-Trifluoromethyl-phenoxymethyl)-phenyl]-piperidin-3-ylmethyl}-carbamoyl)-cyclohexanecarboxylic acid], the pKi is below 4.52.
In the case of `O=C(NCc1ccccc1OC(F)(F)F)C1CNCCC1c1ccc(COc2ccccc2C(F)(F)F)cc1` (stereo not drawn) [Compound 208, 4-[4-(2-Trifluoromethyl-phenoxymethyl)-phenyl]-piperidine-3-carboxylic acid 2-trifluoromethoxy-benzylamide], the pKi is below 4.52.
Regarding `O=C(NC1CCCc2ccccc21)C1CNCCC1c1ccc(COc2ccccc2C(F)(F)F)cc1` (stereo not drawn) [Compound 209, 4-[4-(2-Trifluoromethyl-phenoxymethyl)-phenyl]-piperidine-3-carboxylic acid (1,2,3,4-tetrahydro-naphthalen-1-yl)-amide], the pKi was 4.52 to 5.52.
The same measure for `C1=C(c2cnc(OCc3ccccc3)nc2OCc2ccccc2)CCNC1` [Compound 210, 2,4-Bis-benzyloxy-5-(1,2,3,6-tetrahydro-pyridin-4-yl)-pyrimidine]: 4.52 to 5.52; for `O=C(NC(c1ccccc1)c1ccccc1)C1CNCCC1c1ccc(COc2ccccc2C(F)(F)F)cc1` (stereo not drawn) [Compound 211, 4-[4-(2-Trifluoromethyl-phenoxymethyl)-phenyl]-piperidine-3-carboxylic acid benzhydryl-amide]: 4.52 to 5.52; for `O=C1c2ccccc2C(=O)N1CC1CNCCC1c1ccc(COc2ccccc2C(F)(F)F)cc1` (stereo not drawn) [Compound 212, 2-{4-[4-(2-Trifluoromethyl-phenoxymethyl)-phenyl]-piperidin-3-ylmethyl}-isoindole-1,3-dione]: 4.52 to 5.52.
For `O=C(O)c1cc2ccccc2cc1C(=O)NCC1CNCCC1c1ccc(COc2ccccc2C(F)(F)F)cc1` (stereo not drawn) [Compound 213, 3-({4-[4-(2-Trifluoromethyl-phenoxymethyl)-phenyl]-piperidin-3-ylmethyl}-carbamoyl)-naphthalene-2-carboxylic acid], the pKi was 4.52 to 5.52.
In the case of `O=c1cc(-c2ccccc2)nc(C2CCNCC2)n1Cc1ccccc1C(F)(F)F` [Compound 214, 6-Phenyl-2-piperidin-4-yl-3-(2-trifluoromethyl-benzyl)-3H-pyrimidin-4-one], the pKi is 4.52 to 5.52.
For `O=C(NCc1cccc2ccccc12)C1CNCCC1c1ccc(COc2ccccc2C(F)(F)F)cc1` (stereo not drawn) [Compound 215, 4-[4-(2-Trifluoromethyl-phenoxymethyl)-phenyl]-piperidine-3-carboxylic acid (naphthalen-1-ylmethyl)-amide], the pKi is 4.52 to 5.52.
For `O=C(Nc1ccc2ccccc2c1)C1CNCCC1c1ccc(COc2ccccc2C(F)(F)F)cc1` (stereo not drawn) [Compound 216, 4-[4-(2-Trifluoromethyl-phenoxymethyl)-phenyl]-piperidine-3-carboxylic acid naphthalen-2-ylamide], the pKi is 4.52 to 5.52.
As for `O=C(Nc1cnc(-c2ccc(Cl)c(Cl)c2)nc1N1CCNCC1)c1cccc2ccccc12` [Compound 217, Naphthalene-1-carboxylic acid [2-(3,4-dichloro-phenyl)-4-piperazin-1-yl-pyrimidin-5-yl]-amide], the pKi is 4.52 to 5.52.
`O=c1cc(-c2ccccc2)nc(C2CCNCC2)n1Cc1ccc2ccccc2c1` [Compound 218, 3-Naphthalen-2-ylmethyl-6-phenyl-2-piperidin-4-yl-3H-pyrimidin-4-one]: the pKi is 4.52 to 5.52.
As to `O=C(NC1CCc2ccccc2C1)C1CNCCC1c1ccc(COc2ccccc2C(F)(F)F)cc1` (stereo not drawn) [Compound 219, 4-[4-(2-Trifluoromethyl-phenoxymethyl)-phenyl]-piperidine-3-carboxylic acid (1,2,3,4-tetrahydro-naphthalen-2-yl)-amide], the pKi is 4.52 to 5.52.
As for `O=C(C1CNCCC1c1ccc(COc2ccccc2C(F)(F)F)cc1)N(Cc1ccccc1)c1ccc2ccccc2c1` (stereo not drawn) [Compound 220, 4-[4-(2-Trifluoromethyl-phenoxymethyl)-phenyl]-piperidine-3-carboxylic acid benzyl-naphthalen-2-yl-amide], the pKi was 4.52 to 5.52.
In the case of `O=C(NCC1CNCCC1c1ccc(COc2ccccc2C(F)(F)F)cc1)c1cccc2ccccc12` (stereo not drawn) [Compound 221, Naphthalene-1-carboxylic acid {4-[4-(2-trifluoromethyl-phenoxymethyl)-phenyl]-piperidin-3-ylmethyl}-amide], the pKi is 4.52 to 5.52.
On to `O=C(NCC1CNCCC1c1ccc(COc2ccccc2C(F)(F)F)cc1)c1ccc2ccccc2c1` (stereo not drawn) [Compound 222, Naphthalene-2-carboxylic acid {4-[4-(2-trifluoromethyl-phenoxymethyl)-phenyl]-piperidin-3-ylmethyl}-amide], for which the pKi is 4.52 to 5.52.
Consider `O=C(NC(Cc1ccccc1)C(=O)N1CCCC1C(=O)NCC1CNCCC1c1ccc(COc2ccccc2C(F)(F)F)cc1)OCc1ccccc1` (stereo not drawn) [Compound 223, {1-Benzyl-2-oxo-2-[2-({4-[4-(2-trifluoromethyl-phenoxymethyl)-phenyl]-piperidin-3-ylmethyl}-carbamoyl)-pyrrolidin-1-yl]-ethyl}-carbamic acid benzyl ester], for which the pKi is 4.52 to 5.52.
Take `O=C(NCC1CNCCC1c1ccc(COc2ccccc2C(F)(F)F)cc1)Nc1cccc2ccccc12` (stereo not drawn) [Compound 224, 1-Naphthalen-1-yl-3-{4-[4-(2-trifluoromethyl-phenoxymethyl)-phenyl]-piperidin-3-ylmethyl}-urea]: the pKi was 4.52 to 5.52.
For `O=C(CNC(=O)C(Cc1ccccc1)NC(=O)OCc1ccccc1)NCC1CNCCC1c1ccc(COc2ccccc2C(F)(F)F)cc1` (stereo not drawn) [Compound 225, (2-Phenyl-1-{[({4-[4-(2-trifluoromethyl-phenoxymethyl)-phenyl]-piperidin-3-ylmethyl}-carbamoyl)-methyl]-carbamoyl}-ethyl)-carbamic acid benzyl ester], the pKi is 4.52 to 5.52.
Consider `CNCCN(C)c1ccc(-c2ccc(C(F)(F)F)cc2)cc1NCc1ccc2ccccc2c1` [Compound 226, N4-Methyl-N4-(2-methylamino-ethyl)-N3-naphthalen-2-ylmethyl-4′-trifluoromethyl-biphenyl-3,4-diamine], for which the pKi is above 5.52.
Consider `O=C(Nc1ccc(-c2ccc(Cl)c(Cl)c2)nc1N1CCNCC1)c1cccc2ccccc12` [Compound 227, Naphthalene-1-carboxylic acid [6-(3,4-dichloro-phenyl)-2-piperazin-1-yl-pyridin-3-yl]-amide], for which the pKi was above 5.52.
For `O=C(NCC1CNCCC1c1ccc(COc2ccccc2C(F)(F)F)cc1)Oc1ccc2ccccc2c1` (stereo not drawn) [Compound 228, {4-[4-(2-Trifluoromethyl-phenoxymethyl)-phenyl]-piperidin-3-ylmethyl}-carbamic acid naphthalen-2-yl ester], the pKi was above 5.52.
The same measure for `O=C(NCC1CNCCC1c1ccc(COc2ccccc2C(F)(F)F)cc1)Oc1cccc2ccccc12` (stereo not drawn) [Compound 229, {4-[4-(2-Trifluoromethyl-phenoxymethyl)-phenyl]-piperidin-3-ylmethyl}-carbamic acid naphthalen-1-yl ester]: above 5.52; for `O=C(NC(Cc1c[nH]c2ccccc12)C(=O)N1CCCC1C(=O)NCC1CNCCC1c1ccc(COc2ccccc2C(F)(F)F)cc1)OCC1c2ccccc2-c2ccccc21` (stereo not drawn) [Compound 230, {1-(1H-Indol-3-ylmethyl)-2-oxo-2-[2-{{4-[4-(2-trifluoromethyl-phenoxymethyl)-phenyl]-piperidin-3-ylmethyl}-carbamoyl)-pyrrolidin-1-yl]-ethyl}-carbamic acid 9H-fluoren-9-ylmethyl ester]: above 5.52.
Consider `O=S(=O)(NCC1CNCCC1c1ccc(COc2ccccc2C(F)(F)F)cc1)c1ccc2ccccc2c1` (stereo not drawn) [Compound 231, Naphthalene-2-sulfonic acid {4-[4-(2-trifluoromethyl-phenoxymethyl)-phenyl]-piperidin-3-ylmethyl}-amide], for which the pKi is above 5.52.
To `O=C(NCC1CNCCC1c1ccc(COc2ccccc2C(F)(F)F)cc1)Nc1ccc2ccccc2c1` (stereo not drawn) [Compound 232, 1-Naphthalen-2-yl-3-{4-[4-(2-trifluoromethyl-phenoxymethyl)-phenyl]-piperidin-3-ylmethyl}-urea] belongs above 5.52; to `FC(F)(F)c1ccccc1OCc1cc(-c2cccc3ccccc23)c(COc2ccccc2C(F)(F)F)cc1C1=CCNCC1` [Compound 301, 4-[4-Naphthalen-1-yl-2,5-bis-(2-trifluoromethyl-phenoxymethyl)-phenyl]-1,2,3,6-tetrahydro-pyridine], above 5.52.
As to `C1=C(c2ccc(-c3ccccc3)cc2)C(COc2ccc3ccccc3c2)CNC1` (stereo not drawn) [Compound 302, 4-Biphenyl-4-yl-3-(naphthalen-2-yloxymethyl)-1,2,3,6-tetrahydro-pyridine], the pKi is above 5.52.
The same measure for `FC(F)(F)c1ccccc1OCc1ccc(COc2ccccc2C(F)(F)F)c(C2=CCNCC2)c1` [Compound 303, 4-[2,5-Bis-(2-trifluoromethyl-phenoxymethyl)-phenyl]-1,2,3,6-tetrahydro-pyridine]: above 5.52; for `FC(F)(F)c1ccccc1OCc1cccc(COc2ccccc2C(F)(F)F)c1C1=CCNCC1` [Compound 304, 4-[2,6-Bis-(2-trifluoromethyl-phenoxymethyl)-phenyl]-1,2,3,6-tetrahydro-pyridine]: above 5.52.
Take `c1ccc(COc2ccc3c(c2)c2c(n3Cc3ccc4ccccc4c3)CNCC2)cc1` [Compound 305, 6-Benzyloxy-9-naphthalen-2-ylmethyl-2,3,4,9-tetrahydro-1H-b-carboline]: the pKi was 4.52 to 5.52.
The same measure for `FC(F)(F)c1ccccc1OCc1cc(-c2ccccc2)c(COc2ccccc2C(F)(F)F)cc1C1=CCNCC1` [Compound 306, 4-[2,5-Bis-(2-trifluoromethyl-phenoxymethyl)-biphenyl-4-yl]-1,2,3,6-tetrahydro-pyridine]: above 5.52.
